Results published in US20060173015A1, “Cyclohexyldiamines as selective alpha 1a/1d adrenoreceptor antagonists for the treatment of benign prostatic hypertrophy and lower urinary tract symptoms” (priority 2004, published 2006).

Target: T1, α1d-AR (Homo sapiens, UniProt P25100)
T1 construct: expressed in transfected cells; host or cells: COS-7
T1 sequence (P25100 1-572): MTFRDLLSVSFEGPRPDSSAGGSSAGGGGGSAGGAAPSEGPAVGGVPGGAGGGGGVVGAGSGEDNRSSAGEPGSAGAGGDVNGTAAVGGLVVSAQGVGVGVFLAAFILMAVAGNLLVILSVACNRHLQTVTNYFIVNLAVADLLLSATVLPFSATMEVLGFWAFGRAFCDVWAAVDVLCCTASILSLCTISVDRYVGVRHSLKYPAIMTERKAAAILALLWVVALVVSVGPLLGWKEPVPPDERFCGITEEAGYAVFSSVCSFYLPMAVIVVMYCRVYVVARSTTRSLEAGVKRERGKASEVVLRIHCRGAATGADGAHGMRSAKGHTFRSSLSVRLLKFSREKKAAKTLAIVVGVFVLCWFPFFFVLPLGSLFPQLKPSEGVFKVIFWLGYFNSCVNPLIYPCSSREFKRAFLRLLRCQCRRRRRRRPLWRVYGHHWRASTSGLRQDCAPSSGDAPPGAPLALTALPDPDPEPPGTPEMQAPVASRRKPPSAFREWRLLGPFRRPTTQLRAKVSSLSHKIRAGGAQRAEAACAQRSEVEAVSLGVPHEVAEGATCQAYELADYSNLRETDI
Assay: α1-Adrenergic receptor radio-ligand (125I-HEAT) binding assay, α1d subtype
Conditions: COS-7 cell membranes, 125I-HEAT; read-out: Receptor Binding, Ki α1d-AR

Ki: 0.92 nM
SMILES: COc1ccc(S(=O)(=O)N[C@H]2CC[C@@H](N3CCN(c4ccccc4OCC(F)(F)F)CC3)CC2)cc1OC [Cpd 69, 3,4-Dimethoxy-N-cis-(4-{4-[2-(2,2,2-trifluoro-ethoxy)-phenyl]-piperazin-1-yl}-cyclohexyl)-benzenesulfonamide]
